Test results reported in patent publication US12152048B2, “Nitroxoline prodrug and use thereof” (Jiangsu Yahong Meditech Co., Ltd., priority 2018, dated 2024).

How the values were obtained:
[1] = Stability in human plasma
Stability in dog plasma = format: in vitro ADME
From the text: (§1) Experimental instruments: thermostatic shaker (SHA-B, Guohua Electric Appliance Co., Ltd.); centrifuge (5810R, Eppendorf); mass spectrometry (AP4000, Applied Biosystems, USA); liquid chromatography (LC-30AD, Shimadzu); sample injector (CTC Analytics AG System, CTC).
(§2) Test animals: plasma of human (batch number: BRH1343165), rat (batch number: RAT336728), mouse (batch number: MSE280000), dog (batch number: BGL99137) and monkey (batch number: PH-Monkey-20180821) are purchased from Shanghai Sixin Biological Technology Co., Ltd.
(§3) Experimental process: the compound of the present invention was dissolved in an organic solvent to obtain a 1 mM working solution. 3 μL of the working solution were added to 597 μL of pre-incubated human or rat plasma and mixed well. 50 μL of the solution were immediately taken out as the 0 minute sample. The remaining sample was incubated at 37° C., and 50 μL of sample were taken out at 15, 30, 60 and 120 minutes respectively. All the samples taken out were immediately processed to precipitate protein, and centrifuged to obtain a supermate for the determination of the compound concentration by LC/MS/MS.

[2] = Stability in monkey plasma; format: in vitro ADME
From the text: as §1, §2, §3

[3] = Stability in plasma, overall conclusion (species not stated); conditions: conclusion in words
[4] = Stability in human liver microsome; conditions: 2 μM, 37° C., 30 minutes
Experimental: (§4) Experimental instruments: thermostatic shaker (SHA-B, Guohua Electric Appliance Co., Ltd.); centrifuge (5810R, Eppendorf); mass spectrometry (API4000, Applied Biosystems, USA); liquid chromatography (LC-30AD, Shimadzu); sample injector (CTC Analytics AG System, CTC).
(§5) Experimental process: 25 μg/mL alamethicin (Aldrich), 5 mM magnesium chloride and 0.5 mg/mL microsome (XENOTECH) were added to 100 mM phosphate buffer to obtain a coenzyme-free reaction solution. A portion of the coenzyme-free reaction solution was added with 1 mM reductive nicotinamide adenine dinucleotide phosphate (Aldrich) and 5 mM uridine diphosphate glucuronic acid (Aldrich) to obtain a coenzyme-containing reaction solution. The working solution of the compound of the present invention was added to the two reaction solutions so that the final concentration of the compound was 2 μM. Immediately after mixing well, 50 μL of the solution were taken out as the 0 minute sample, and 50 μL of the remaining sample were taken out after incubating at 37° C. for 30 minutes. All the samples taken out were immediately processed to precipitate protein, and centrifuged to obtain a supernate for the determination of the compound concentration by LC/MS/MS.

[5] = Stability in dog liver microsome; conditions: 2 μM, 37° C., 30 minutes
[6] = Stability in rat liver microsome; conditions: 2 μM, 37° C., 30 minutes
Experimental: as §4, §5

[7] = Determination of water solubility in phosphate buffer; format: physicochemical; conditions: for solubility at 24 h: thermodynamic from solid
From the text: Experimental instruments: 96-well filter plate (MSHVN4510 or MSHVN4550, Millipore); electronic digital display vortex mixer (MS3 Digital, IKA); multi-purpose vacuum pump (circulating water type, SHB-111, Zhengzhou Greatwall Scientific Industrial and Trade Co., Ltd.); balance (XSLT05, Mettler-Toledo); comfortable mixer (Eppendorf AG 22331 Hamburg, Eppendorf); liquid chromatography (LC-3AD, Shimadzu); mass spectrometry (API4000, Applied Biosystems, USA); sample injector (Anylytics AG System, CTC). Nitroxoline was prepared according to the method disclosed in Journal of Heterocyclic Chemistry, 1971, vol. 8, p 821 by Wisdom Pharmaceutical Co., Ltd.
Experimental process: 500 μL of phosphate buffer (pH=1.2, 4.5, 6.8 or 7.4) were added to a glass flask, to which 2 mg of compound powder were added. The flask was sealed with a cap and shaked on a mixer (VORTEX-GENIE2) at room temperature for 24 hours. The solution was subjected to vacuum filtration, and the filtrate was processed to determine the compound concentration by LC/MS/MS.

From the text for Stability in rat plasma: as §1, §2, §3

Row | SMILES | Percentage of the compound remaining in plasma ([1]; 0 minute) [%] | Percentage of the compound remaining in plasma ([1]; 37° C., 15 minutes) [%] | Percentage of the compound remaining in plasma ([1]; 37° C., 30 minutes) [%] | Percentage of the compound remaining in plasma ([1]; 37° C., 60 minutes) [%] | Percentage of the compound remaining in plasma ([1]; 37° C., 120 minutes) [%] | Percentage of the compound remaining in plasma (Stability in rat plasma; 0 minute) [%] | Percentage of the compound remaining in plasma (Stability in rat plasma; 37° C., 15 minutes) [%] | Percentage of the compound remaining in plasma (Stability in rat plasma; 37° C., 30 minutes) [%] | Percentage of the compound remaining in plasma (Stability in rat plasma; 37° C., 60 minutes) [%] | Percentage of the compound remaining in plasma (Stability in rat plasma; 37° C., 120 minutes) [%] | Percentage of the compound remaining in plasma (Stability in dog plasma; 0 minute) [%] | Percentage of the compound remaining in plasma (Stability in dog plasma; 37° C., 15 minutes) [%] | Percentage of the compound remaining in plasma (Stability in dog plasma; 37° C., 30 minutes) [%] | Percentage of the compound remaining in plasma (Stability in dog plasma; 37° C., 60 minutes) [%] | Percentage of the compound remaining in plasma (Stability in dog plasma; 37° C., 120 minutes) [%] | stability in plasma [3] | further results
1 | CC(C)(C)C(=O)OCOc1ccc([N+](=O)[O-])c2cccnc12 [Compound 4, (5-nitroquinolin-8-yloxy)methyl pivalate] | 100.0 | 80.9 | 70.7 | 54.7 | 31.4 | 100.0 | 0.0 | 0.0 | 0.0 | 0.0 | 100.0 | 80.0 | 56.3 | 32.7 | 18.2 | – | Percentage of the compound remaining in plasma ([2]; 0 minute): 100.0%; Percentage of the compound remaining in plasma ([2]; 37° C., 15 minutes): 4.8%; Percentage of the compound remaining in plasma ([2]; 37° C., 30 minutes): 0.3%; Percentage of the compound remaining in plasma ([2]; 37° C., 60 minutes): 0.0%; Percentage of the compound remaining in plasma ([2]; 37° C., 120 minutes): 0.0%
2 | COC(=O)[C@H](Cc1ccccc1)NC(=O)OCOc1ccc([N+](=O)[O-])c2cccnc12 [Compound 58, methyl (S)-2-(((5-nitroquinolin-8-yloxy)methoxy)formamido)-3-phenylpropionate] | 100.0 | 95.2 | 83.6 | 60.9 | 21.6 | 100.0 | 0.0 | 0.0 | 0.0 | 0.0 | 100.0 | 96.3 | 90.4 | 74.4 | 49.8 | high stability | –
3 | C[C@@H]1CN(C(=O)OCOc2ccc([N+](=O)[O-])c3cccnc23)C[C@H](C)O1 [Compound 59, (2S,6R)-(5-nitroquinolin-8-yloxy)methyl 2,6-dimethylmorpholine-4-carboxylate] | 100.0 | 102.3 | 100.9 | 103.1 | 100.3 | 100.0 | 95.8 | 94.1 | 92.4 | 92.4 | 100.0 | 96.7 | 95.0 | 102.8 | 99.9 | high stability | –
4 | CC1CN(C(=O)OCOc2ccc([N+](=O)[O-])c3cccnc23)CCO1 (stereo not shown) [Compound 62, (5-nitroquinolin-8-yloxy)methyl 2-methylmorpholine-4-carboxylate] | 100.0 | 95.4 | 101.8 | 99.7 | 92.7 | 100.0 | 92.4 | 97.3 | 95.8 | 89.0 | – | – | – | – | – | high stability | –
5 | CC(C)(C)OP(=O)(OCOc1ccc([N+](=O)[O-])c2cccnc12)OC(C)(C)C [Compound 70, di-tert-butyl (5-nitroquinolin-8-yloxy)methyl phosphate] | 100.0 | 85.6 | 89.0 | 75.2 | 74.4 | 100.0 | 93.4 | 80.7 | 84.1 | 72.9 | – | – | – | – | – | high stability | Percentage of the compound remaining in human liver microsome ([4]; with coenzyme): 91.20%; Percentage of the compound remaining in human liver microsome ([4]; without coenzyme): 91.76%; Percentage of the compound remaining in dog liver microsome ([5]; with coenzyme): 91.42%; Percentage of the compound remaining in dog liver microsome ([5]; without coenzyme): 90.90%; Percentage of the compound remaining in rat liver microsome ([6]; with coenzyme): 94.34%; Percentage of the compound remaining in rat liver microsome ([6]; without coenzyme): 96.79%; solubility at 24 h ([7]; aqueous buffer, phosphate buffer pH 4.5, room temperature): 843 µg/mL; solubility at 24 h ([7]; aqueous buffer, phosphate buffer pH 6.8, room temperature): 940 µg/mL; solubility at 24 h ([7]; aqueous buffer, phosphate buffer pH 7.4, room temperature): 998 µg/mL; water solubility compared with nitroxoline ([7]; conclusion in words): increased by several times; solubility at 24 h ([7]; simulated gastric fluid, phosphate buffer pH 1.2, room temperature): 639 µg/mL
